Results published in patent publication US20250002855A1, “METHODS FOR EXPANDING T CELLS FOR THE TREATMENT OF CANCER AND RELATED MALIGNANCIES” (Immatics US, Inc., priority 2020, published 2025).

Assays:
[1] = test system: tumor-infiltrating lymphocytes; conditions: in the presence of IL-21; after 2 weeks of culture; cited from earlier work
γδ T cells = test: δ1 and δ2 populations by flow cytometry; type: cell-based, human; conditions: Day 21; culture without vs with zoledronate (5 μM)
Text: Cells were harvested on Day 21 and analyzed by flow cytometry to determine δ1 and δ2 populations.
The presence of δ1 cells as a percentage of live cells is shown for two donors in FIG. 18A & 18B.

SMILES | Tcm αβ T cells (CD28+CD62L+) [1] | δ1 and δ2 populations (γδ T cells)
O=C(CCCCCCC(=O)Nc1ccccc1)NO [SAHA, suberoylanilide hydroxamic acid] | increase Tcm αβ T cells | –
O=P(O)(O)C(O)(Cn1ccnc1)P(=O)(O)O [zoledronate] | – | lack of zoledronate in the culture results in a polyclonal population
